Laboratory results: patent publication US10662229B2, “Spider venom peptides and methods of use for modulating sodium channels” (priority 2016, dated 2020)
“Also recorded” adds a separate entry of the source.

Columns and labels:
[1] = molecular target: T1, hNav1.2 (Homo sapiens, UniProt Q99250); test: Automated patch clamping (QPatch-16), hNav1.2; assay type: cell-based
T1 construct: host or cells: HEK293
Experimental: HEK293 cells stably expressing hNav1.1-1.7 or CHO cells stably expressing hNav1.8 (as described in Example 3 above) were cultured in a T-175 flask in selection antibiotic-free media at 37° C. Cells were grown to 70-80% confluence and harvested using Detachin (Bio-Scientific, NSW, Australia) at 37° C. for 2 min. Dissociated cells were then resuspended in Ex-Cell ACF CHO Medium with HEPES (25 mM; Sigma-Aldrich Co.) and allowed to recover on the QStirrer for 30 min.
The extracellular solution contained in mM: NaCl 145, KCl 4, CaCl2 2, MgCl2 1, HEPES 10 and glucose 10. The pH was adjusted to 7.4 with NaOH and osmolarity was adjusted with sucrose to 305 mOsm. The intracellular solution contained in mM: CsF 140, ethylene glycol tetraacetic acid (EGTA)/CsOH 1/5, HEPES 10 and NaCl 10. The pH was adjusted to 7.3 with CsOH and osmolarity adjusted with sucrose to 320 mOsm. […]
The current-voltage (IV) curve was constructed with a holding potential of −80 mV followed by a pre-pulse of −100 mV for 50 ms and a series of 50 ms step pulses that ranged from −80 to 50 mV in 5 mV increments before returning to a holding potential of −80 mV. Voltage-dependence of activation was determined as normalized Nav conductance (GNa) using: GNa=INa/(Vmemb−Vrev), where Vmemb is the membrane potential and Vrev is the reversal potential for each cell. […]

[2] = tested on: burns-induced pain in mice; test: Burns-induced pain; assay type: in vivo; details: intraplantar, 3 days after burns injury
Experimental: (§1) For behavioural assessment adult male C57BL/6J mice aged 6-8 weeks were used. Animals were housed in groups of 3 or 4 per cage, under 12 h light-dark cycles and had standard rodent chow and water ad libitum.
To induce a mild burn injury, the plantar skin of the left hind paw of mice was applied with firm pressure to a Peltier plate (Hot/Cold Plate, Ugo Basile, Comerio, Italy) set at 52.5° C. for 25 s under light isoflurane (3%) anaesthesia. Behavioural assessment (mechanical and thermal thresholds) was performed 3 days after the burns injury.
Mechanical allodynia was assessed using an electronic von Frey apparatus (MouseMet Electronic von Frey, TopCat Metrology Ltd, United Kingdom). […] The force that elicited paw withdrawal was calculated using the MouseMet Software. The paw withdrawal force (PWF) was determined from the average of three tests, separated by at least 2 min.
Mice were habituated in individual mouse runs for at least 5 min prior to testing. […] Removal of the paw and/or the probe by the investigator terminates heating, and triggers display of the withdrawal temperature on the readout, without the need for the investigator to manually stop the heating or record the temperature, until the reset button is pressed. The temperature that elicited a paw withdrawal, known as the paw withdrawal temperature (PWT), was determined by a single test.

[3] = molecular target: T2, hNav1.3 (Homo sapiens, UniProt Q9NY46); test: FLIPR membrane potential assay, hNav1.3; assay type: cell-based
T2 construct: host or cells: HEK293
Method in brief: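 Readout is a FLIPR^TETRA membrane potential signal sampled every second for 300 s after agonists are added. HEK293 cells stably carrying the human channel are loaded with red membrane potential dye at 37° C for 30 min.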

[4] = tested on: OD1-induced spontaneous pain behaviours in mice; test: OD1 model of spontaneous pain behaviours; assay type: in vivo
Experimental: as §1
OD1 was diluted in phosphate-buffered saline/0.1% BSA (300 nM) and administered by shallow subcutaneous (intraplantar) injection to the left hind paw of mice in a volume of 40 μL under light isoflurane (3%) anesthesia. Mice were then placed individually into polyvinyl boxes (10×10×10 cm), and spontaneous pain behavior (licks and flinches) was counted by an investigator unaware of the treatments received from video recordings for 10 min post-injection.

[5] = molecular target: T3, hNav1.9 (Homo sapiens, UniProt Q9UI33); test: Automated patch clamp (PatchXpress), hNav1.9; assay type: cell-based
T3 construct: expressed in transfected cells; host or cells: HEK293
Experimental: Cells were triturated until a single cell suspension was achieved. […] Cell aliquots of 5 mL (1×10^6 cells) were placed in a 15 mL centrifuge tube and spun at 100×g for 2 minutes.

T3 sequence (Q9UI33 whole entry): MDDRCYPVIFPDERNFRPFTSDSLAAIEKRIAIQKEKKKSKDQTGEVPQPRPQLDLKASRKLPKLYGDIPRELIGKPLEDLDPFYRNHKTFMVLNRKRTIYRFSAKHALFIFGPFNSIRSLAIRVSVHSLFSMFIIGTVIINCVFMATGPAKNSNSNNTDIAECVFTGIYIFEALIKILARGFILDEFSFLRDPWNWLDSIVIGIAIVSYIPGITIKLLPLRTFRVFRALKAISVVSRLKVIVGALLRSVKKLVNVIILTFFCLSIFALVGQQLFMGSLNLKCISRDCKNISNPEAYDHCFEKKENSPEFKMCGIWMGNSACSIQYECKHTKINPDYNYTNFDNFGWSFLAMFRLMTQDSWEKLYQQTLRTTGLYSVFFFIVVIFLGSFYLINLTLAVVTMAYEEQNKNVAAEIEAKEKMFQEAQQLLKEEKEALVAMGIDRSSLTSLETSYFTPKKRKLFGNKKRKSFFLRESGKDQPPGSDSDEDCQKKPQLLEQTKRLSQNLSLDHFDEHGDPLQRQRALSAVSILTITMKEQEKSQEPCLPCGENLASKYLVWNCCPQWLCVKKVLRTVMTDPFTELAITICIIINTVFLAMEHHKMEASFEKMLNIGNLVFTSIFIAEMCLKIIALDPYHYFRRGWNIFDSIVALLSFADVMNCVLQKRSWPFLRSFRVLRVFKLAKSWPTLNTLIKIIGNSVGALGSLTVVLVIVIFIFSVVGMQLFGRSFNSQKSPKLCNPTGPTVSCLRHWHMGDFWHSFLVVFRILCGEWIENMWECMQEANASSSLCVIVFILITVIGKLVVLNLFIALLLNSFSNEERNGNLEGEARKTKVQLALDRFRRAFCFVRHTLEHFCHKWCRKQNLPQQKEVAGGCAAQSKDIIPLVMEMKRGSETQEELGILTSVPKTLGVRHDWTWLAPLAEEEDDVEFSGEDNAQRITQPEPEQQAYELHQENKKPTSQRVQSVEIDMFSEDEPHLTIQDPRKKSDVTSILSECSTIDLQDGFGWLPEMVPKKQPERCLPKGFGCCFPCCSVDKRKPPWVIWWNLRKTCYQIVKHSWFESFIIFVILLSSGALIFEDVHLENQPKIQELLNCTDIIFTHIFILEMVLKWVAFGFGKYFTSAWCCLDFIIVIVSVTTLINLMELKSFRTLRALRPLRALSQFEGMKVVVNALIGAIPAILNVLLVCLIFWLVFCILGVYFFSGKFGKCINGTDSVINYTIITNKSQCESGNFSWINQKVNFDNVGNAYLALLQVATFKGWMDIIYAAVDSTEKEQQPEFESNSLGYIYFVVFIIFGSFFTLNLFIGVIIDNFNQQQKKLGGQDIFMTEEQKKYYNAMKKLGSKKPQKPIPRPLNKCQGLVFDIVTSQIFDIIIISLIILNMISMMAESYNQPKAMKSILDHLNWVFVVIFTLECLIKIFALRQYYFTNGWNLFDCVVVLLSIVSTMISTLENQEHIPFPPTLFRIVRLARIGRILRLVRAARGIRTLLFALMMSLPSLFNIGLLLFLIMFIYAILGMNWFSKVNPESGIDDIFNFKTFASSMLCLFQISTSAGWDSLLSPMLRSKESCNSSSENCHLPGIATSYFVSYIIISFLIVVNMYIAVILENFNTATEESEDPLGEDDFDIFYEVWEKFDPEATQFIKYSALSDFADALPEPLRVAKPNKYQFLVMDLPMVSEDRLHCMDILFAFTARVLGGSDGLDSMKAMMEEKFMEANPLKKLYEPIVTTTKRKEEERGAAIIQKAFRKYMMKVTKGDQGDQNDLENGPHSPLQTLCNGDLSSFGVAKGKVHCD
T1 sequence (Q99250 whole entry): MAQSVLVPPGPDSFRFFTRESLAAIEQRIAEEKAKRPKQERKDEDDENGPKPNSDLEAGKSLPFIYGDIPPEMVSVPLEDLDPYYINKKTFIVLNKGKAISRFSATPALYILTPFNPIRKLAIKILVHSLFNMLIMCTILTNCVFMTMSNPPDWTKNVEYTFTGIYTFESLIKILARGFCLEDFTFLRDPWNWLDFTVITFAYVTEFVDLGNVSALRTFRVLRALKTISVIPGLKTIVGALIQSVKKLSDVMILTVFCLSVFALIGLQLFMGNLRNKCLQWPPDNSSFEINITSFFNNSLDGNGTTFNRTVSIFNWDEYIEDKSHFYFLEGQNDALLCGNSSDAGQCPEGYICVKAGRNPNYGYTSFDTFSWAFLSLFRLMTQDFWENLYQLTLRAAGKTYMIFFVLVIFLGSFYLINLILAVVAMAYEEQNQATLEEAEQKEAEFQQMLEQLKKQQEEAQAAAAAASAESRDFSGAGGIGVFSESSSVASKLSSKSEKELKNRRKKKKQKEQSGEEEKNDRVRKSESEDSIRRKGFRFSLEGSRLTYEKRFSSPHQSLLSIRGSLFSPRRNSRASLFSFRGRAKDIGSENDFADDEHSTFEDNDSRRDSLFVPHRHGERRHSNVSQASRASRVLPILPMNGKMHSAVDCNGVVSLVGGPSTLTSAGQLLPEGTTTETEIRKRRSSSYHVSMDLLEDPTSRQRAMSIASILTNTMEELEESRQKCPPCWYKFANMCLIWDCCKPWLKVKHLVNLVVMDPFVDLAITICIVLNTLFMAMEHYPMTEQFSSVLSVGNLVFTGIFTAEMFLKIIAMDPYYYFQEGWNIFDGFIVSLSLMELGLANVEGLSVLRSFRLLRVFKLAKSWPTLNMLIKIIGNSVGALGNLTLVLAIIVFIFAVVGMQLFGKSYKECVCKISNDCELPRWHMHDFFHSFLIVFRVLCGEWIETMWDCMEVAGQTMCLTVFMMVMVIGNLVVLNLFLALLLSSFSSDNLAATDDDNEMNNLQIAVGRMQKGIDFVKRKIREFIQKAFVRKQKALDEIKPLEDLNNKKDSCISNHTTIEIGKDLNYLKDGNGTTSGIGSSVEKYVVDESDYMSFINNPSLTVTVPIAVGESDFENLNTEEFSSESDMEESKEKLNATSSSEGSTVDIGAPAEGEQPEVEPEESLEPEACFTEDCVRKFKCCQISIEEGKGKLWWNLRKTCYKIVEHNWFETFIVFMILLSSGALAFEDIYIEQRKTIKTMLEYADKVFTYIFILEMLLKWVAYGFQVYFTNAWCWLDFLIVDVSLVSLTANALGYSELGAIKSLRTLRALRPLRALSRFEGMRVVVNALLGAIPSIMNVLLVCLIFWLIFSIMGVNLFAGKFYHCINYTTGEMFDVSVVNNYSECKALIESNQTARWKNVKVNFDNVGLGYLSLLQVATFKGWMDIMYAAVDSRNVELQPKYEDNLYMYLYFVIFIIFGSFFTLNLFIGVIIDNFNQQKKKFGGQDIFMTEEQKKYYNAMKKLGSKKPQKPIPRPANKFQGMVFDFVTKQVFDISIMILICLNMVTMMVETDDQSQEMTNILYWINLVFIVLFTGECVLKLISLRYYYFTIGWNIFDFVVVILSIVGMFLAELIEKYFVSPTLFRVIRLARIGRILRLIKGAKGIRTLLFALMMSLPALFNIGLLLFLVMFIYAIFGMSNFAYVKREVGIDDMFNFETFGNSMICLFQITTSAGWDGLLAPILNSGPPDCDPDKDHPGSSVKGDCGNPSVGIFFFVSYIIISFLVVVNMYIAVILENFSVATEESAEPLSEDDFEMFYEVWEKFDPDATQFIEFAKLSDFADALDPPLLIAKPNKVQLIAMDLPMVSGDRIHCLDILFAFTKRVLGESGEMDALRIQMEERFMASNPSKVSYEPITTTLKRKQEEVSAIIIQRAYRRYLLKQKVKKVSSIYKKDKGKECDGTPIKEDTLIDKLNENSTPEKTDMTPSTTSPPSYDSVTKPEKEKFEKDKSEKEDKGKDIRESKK

Structure (SMILES): CSCC[C@@H]1NC(=O)[C@H](Cc2ccc(O)cc2)NC(=O)[C@H](CCCNC(=N)N)NC(=O)[C@@H](NC(=O)[C@@H](N)CC(=O)O)CSSC[C@@H]2NC(=O)[C@@H]3CSSC[C@@H](C(=O)N[C@@H](C)C(=O)N[C@@H](Cc4c[nH]c5ccccc45)C(=O)N[C@@H](CC(=O)O)C(=O)N[C@@H](Cc4ccccc4)C(=O)N[C@H](C(=O)N[C@@H](Cc4ccccc4)C(=O)N[C@H](C(=O)O)[C@@H](C)O)[C@@H](C)O)NC(=O)[C@H](Cc4ccc(O)cc4)NC(=O)[C@H](CCCCN)NC(=O)[C@H](CCSC)NC(=O)[C@H](CCCCN)NC(=O)[C@H](CCCNC(=N)N)NC(=O)[C@H](CCCCN)NC(=O)[C@H](CSSC[C@H](NC(=O)[C@H](CC(=O)O)NC(=O)CNC(=O)[C@H](Cc4ccccc4)NC1=O)C(=O)N[C@@H](CCC(=O)O)C(=O)N[C@@H](CCCCN)C(=O)N[C@@H](CC(=O)O)C(=O)N[C@@H](CCC(=O)O)C(=O)N[C@@H](CC(=O)O)C(=O)N3)NC(=O)CNC(=O)[C@H](CC(C)C)NC(=O)[C@H](Cc1cnc[nH]1)NC(=O)[C@H](CCCCN)NC2=O [Pnc1a]
- IC50 [1]: 126 nM
- mechanical threshold of the injured paw [2]: no significant effect
- thermal threshold of the injured paw [2]: significantly increased
- IC50 [3]: 8130 nM
- spontaneous pain behaviours evoked by OD1 ([4]; intraperitoneal 0.3, 1, 3 mg/kg, 15 min prior to OD1): concentration-dependently reversed; also recorded: dose-dependently reduced
- spontaneous pain behaviours evoked by OD1 ([4]; intraplantar, co-injected with OD1, 100 nM, 300 nM, 1 μM): concentration-dependently reversed
- IC50 [5]: 2340 nM
